Measured values reported in patent publication US8470829B2 (priority 2004, dated 2013).
Read-outs that look alike come from different tables or passages of the source.

Legend:
[1] = target: T1, human androgen receptor (Homo sapiens, UniProt P10275); experiment: Investigation of antagonist effect on androgen receptor (reporter gene assay, 11A11B2 cells, with DHT); assay type: cell-based
T1 construct: expressed in transfected cells
T1 sequence (P10275 1-920): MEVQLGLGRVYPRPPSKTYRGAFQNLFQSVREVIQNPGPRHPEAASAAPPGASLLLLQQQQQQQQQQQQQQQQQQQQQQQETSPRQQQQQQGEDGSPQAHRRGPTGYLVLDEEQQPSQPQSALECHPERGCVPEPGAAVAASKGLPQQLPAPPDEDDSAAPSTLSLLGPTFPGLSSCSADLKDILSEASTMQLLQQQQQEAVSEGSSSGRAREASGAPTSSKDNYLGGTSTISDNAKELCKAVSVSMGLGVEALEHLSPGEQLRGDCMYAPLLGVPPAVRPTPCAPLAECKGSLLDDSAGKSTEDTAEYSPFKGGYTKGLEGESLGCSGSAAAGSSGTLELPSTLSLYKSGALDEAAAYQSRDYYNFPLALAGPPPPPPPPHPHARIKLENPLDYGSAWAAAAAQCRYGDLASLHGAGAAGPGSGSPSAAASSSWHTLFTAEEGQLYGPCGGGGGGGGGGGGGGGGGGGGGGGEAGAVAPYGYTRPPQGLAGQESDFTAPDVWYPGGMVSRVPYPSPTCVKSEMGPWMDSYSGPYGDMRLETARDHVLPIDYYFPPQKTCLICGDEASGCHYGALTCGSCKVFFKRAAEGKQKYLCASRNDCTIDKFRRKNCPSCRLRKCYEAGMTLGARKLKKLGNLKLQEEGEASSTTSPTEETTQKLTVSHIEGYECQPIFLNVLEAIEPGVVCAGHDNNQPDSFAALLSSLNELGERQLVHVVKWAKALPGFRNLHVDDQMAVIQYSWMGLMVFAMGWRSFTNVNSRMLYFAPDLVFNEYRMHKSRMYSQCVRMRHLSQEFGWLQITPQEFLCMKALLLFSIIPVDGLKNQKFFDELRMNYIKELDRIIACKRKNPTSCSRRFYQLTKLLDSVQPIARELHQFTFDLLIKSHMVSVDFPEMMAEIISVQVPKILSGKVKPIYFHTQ
Description: (§1) HeLa cells (purchased from Dai-Nippon Seiyaku K. K.) were cultured overnight in Dulbecco's Modified Eagle Medium containing no phenol red, but containing 3% charcoal-treated fetal bovine serum (hereafter referred to as DCC-FBS) (this medium is hereafter referred to as phenol-red-free DMEM). An MMTV-Luc-Hyg vector (reporter plasmid with mouse mammary tumor virus long terminal repeat, containing an androgen response element and a hygromycin resistance gene: a vector obtained by substituting a chloramphenicol acetyl transferease gene of a GM-CAT vector (A.T.C.C No. 67282) purchased from the A.T.C.C. with the firefly luciferase gene, and inserting a hygromycin resistance gene as a drug resistant gene), and pSG5-hAR-neo (human androgen receptor expression vector: a vector having an androgen receptor gene under the control of the SV40 promoter, and having a neomycin resistance gene inserted as a drug resistance gene) were transfected into the HeLa cells using an FuGENE™ 6 Transfection Reagent (obtained from Roche).
(§2) The clone cells thus obtained (11A11B2 cells) were maintained and propagated using DMEM containing 400 μg/mL neomycin, 200 μg/mL hygromycin and 10% FBS, and were propagated using phenol-red-free DMEM containing 10% DCC-FBS three to four days prior to the performance of an androgen receptor reporter gene assay.
The 11A11B2 cells were inoculated in a white clear-bottomed 96-well microplate (COSTAR) so that the cell concentration was 1.0×10^4/well, and were cultured overnight. The assay medium containing DHT was added so that the final concentration of DHT was 0.1 nmol/L, and samples of the assay medium containing the compounds of the Examples or compounds of the Comparative Examples were added so that the final concentrations of the compounds of the Examples or compounds of the Comparative Examples were 1, 10, 100, 1,000 and 10,000 nmol/L, respectively. After culturing for 48, hours, the transcription activity values were measured. The transcription activity was measured using a Bright-Glo™ Luciferase Assay System (Promega).
(§3) The transcription activity rates of the compounds of the Examples were calculated from the transcription activity measured by the abovementioned method, with the transcription activity value obtained at 0.1 nmol/L DHT taken as 100%, and the transcription activity value in the case of the assay, medium alone taken as 0%.

[2] = target: T1, human androgen receptor; experiment: Measurement of agonist effect on androgen receptor (reporter gene assay, 11A11B2 cells); assay type: cell-based; conditions: compound concentration showing a transcription activity of 5% (0.1 nmol/L DHT = 100%, assay medium alone = 0%), 48 hours
Description: as §1, §2
The 11A11B2 cells were inoculated in a white clear-bottomed 96-well microplate (COSTAR) so that the cell concentration was 1.0×10^4/well, and were cultured overnight using phenol-red-free DMEM containing 3% DCC-FBS (hereafter referred to as the assay medium). Samples of the assay medium containing the compounds of the Examples and compounds of the Comparative Examples were added so that the final concentrations of the compounds of the Examples and compounds of the Comparative Examples were 1, 10, 100, 1,000 and 10,000 nmol/L), and the cells were cultured for 48 hours, after which the transcription activity value was measured. The transcription activity was measured using a Bright-Glo™ Luciferase Assay System (Promega).
as §3, with “assay” for “assay,”, “0%. The compound concentration showing a transcription activity of 5% (EC5 value) was calculated from a linear equation for two points on either side of 5%.” for “0%.”

[3] = with 0.1 nmol/L DHT, transcription activity rate of Test Example 1 subtracted, 11A11B2 cells, 48 hours, read-out: IC50

| Compound | IC50 [1] [nM] | EC5 [2] [µM] | IC50 [1, 3] [nM] |
| --- | --- | --- | --- |
| CN(C)CCOC(=O)Nc1ccc(N2C(=S)N(c3ccc(C#N)c(Cl)c3)C(=O)C2(C)C)cn1 [Example 69, {5-[3-(3-chloro-4-cyanophenyl)-5,5-dimethyl-4-oxo-2-thioxoimidazolidin-1-yl]pyridin-2-yl}-carbamic acid 2-dimethylaminoethyl ester] | 500 | >10 |  |
| CCCNC(=O)N1CCC(N2C(=S)N(c3ccc(C#N)c(C(F)(F)F)c3)C(=O)C2(C)C)CC1 [Example 39, 4-[3-(1-n-propylaminocarbonylpiperidin-4-yl)-4,4-dimethyl-5-oxo-2-thioxoimidazolidin-1-yl]-2-trifluoromethylbenzonitrile] |  | >10 | 900 |
| CCCS(=O)(=O)N1CCC(N2C(=O)N(c3ccc(C#N)c(Cl)c3C)C(=O)C2(C)C)CC1 [Example 11, 4-[3-(1-propanesulfonylpiperidin-4-yl)-4,4-dimethyl-2,5-dioxoimidazolidin-1-yl]-2-chloro-3-methylbenzonitrile] |  | >10 | 300 |
| CC(=O)N1CCC(N2C(=S)N(c3ccc(C#N)c(Cl)c3)C(=O)C2(C)C)CC1 [Example 6, 4-[3-(1-acetylpiperidin-4-yl)-4,4-dimethyl-5-oxo-2-thioxoimidazolidin-1-yl]-2-chlorobenzonitrile] | 200 | >10 |  |
| COC(=O)Nc1cc(N2C(=O)N(c3ccc(C#N)c(OC)c3)C(=O)C2(C)C)ccc1F [Example 30] |  | >10 | 500 |
| CC1(C)C(=O)N(c2ccc(C#N)c(C(F)(F)F)c2)C(=S)N1c1ccc(NC(=O)OCC(O)CO)nc1 (stereo not drawn) [Example 70, {5-[3-(4-cyano-3-trifluoromethylphenyl)-5,5-dimethyl-4-oxo-2-thioxoimidazolidin-1-yl]pyridin-2-yl}-carbamic acid 2,3-dihydroxypropyl ester] | 500 | >10 |  |
| CC1(C)C(=O)N(c2ccc(C#N)c(C(F)(F)F)c2)C(=O)N1c1ccc(Cl)c(NC(=O)OCCCCO)c1 [Example 33, {2-chloro-5-[3-(4-cyano-3-trifluoromethylphenyl)-5,5-dimethyl-2,4-dioxoimidazolidin-1-yl]phenyl}-carbamic acid 4-hydroxybutyl ester] | 300 | >10 |  |
| CCOC(=O)Nc1cc(N2C(=O)N(c3ccc(C#N)c(OC)c3)C(=O)C2(C)C)ccc1Cl [Example 24, 4-[3-(3-ethoxycarbonylamino-4-chlorophenyl)-4,4-dimethyl-2,5-dioxoimidazolidin-1-yl]-2-methoxybenzonitrile] |  | >10 | 200 |
| CC1(C)C(=O)N(c2ccc(C#N)c(Cl)c2)C(=S)N1c1ccc(Cl)c(NC(=O)OCC(O)CO)c1 (stereo not drawn) [Example 50, {2-chloro-5-[3-(4-cyano-3-chlorophenyl)-5,5-dimethyl-4-oxo-2-thioxoimidazolidin-1-yl]phenyl}-carbamic acid 2,3-dihydroxypropyl ester] | 300 | >10 |  |
| CC1(C)C(=O)N(c2ccc(C#N)c(C(F)(F)F)c2)C(=S)N1c1ccc(Cl)c(NC(=N)N)c1 [Example 55, N-{2-chloro-5-[3-(4-cyano-3-trifluoromethylphenyl)-5,5-dimethyl-4-oxo-2-thioxoimidazolidin-1-yl]phenyl}guanidine] | 700 | >10 |  |
| CN(C)CCOC(=O)Nc1nc2cc(N3C(=S)N(c4ccc(C#N)c(Cl)c4)C(=O)C3(C)C)ccc2s1 [Example 64, {5-[3-(3-chloro-4-cyanophenyl)-5,5-dimethyl-4-oxo-2-thioxoimidazolidin-1-yl]benzothiazol-2-yl}carbamic acid 2-dimethylaminoethyl ester] |  | >10 | 200 |
| CN(C)CCCOC(=O)Nc1cc(N2C(=O)N(c3ccc(C#N)c(C(F)(F)F)c3)C(=O)C2(C)C)ccc1Cl [Example 32, {2-chloro-5-[3-(4-cyano-3-trifluoromethylphenyl)-5,5-dimethyl-2,4-dioxoimidazolidin-1-yl]phenyl}-carbamic acid 3-dimethylaminopropyl ester] | 500 | >10 |  |
| CC1(C)C(=O)N(c2ccc(C#N)c(C(F)(F)F)c2)C(=O)N1c1ccc(Cl)c(NC(=O)OCCN)c1 [Example 37, {2-chloro-5-[3-(4-cyano-3-trifluoromethylphenyl)-5,5-dimethyl-2,4-dioxoimidazolidin-1-yl]phenyl}-carbamic acid 2-aminoethyl ester] |  | >10 | 700 |
| CCCOC(=O)Nc1cc(N2C(=O)N(c3ccc(C#N)c(OC)c3)C(=O)C2(C)C)ccc1Cl [Example 26, 4-[3-(3-n-propoxycarbonylamino-4-chlorophenyl)-4,4-dimethyl-2,5-dioxoimidazolidin-1-yl]-2-methoxybenzonitrile] |  | >10 | 200 |
| COc1cc(N2C(=O)C(C)(C)N(c3ccc4sc(NC(N)=O)nc4c3)C2=S)ccc1C#N [Example 19, {5-[3-(4-cyano-3-methoxyphenyl)-5,5-dimethyl-4-oxo-2-thioxoimidazolidin-1-yl]-benzothiazol-2-yl}urea] |  | >10 | 200 |
| CC1(C)C(=O)N(c2ccc(C#N)c(Cl)c2)C(=S)N1c1cccc(S(N)(=O)=O)c1 [Example 68, 3-[3-(3-chloro-4-cyanophenyl)-5,5-dimethyl-4-oxo-2-thioxoimidazolidin-1-yl]benzenesulfonamide] |  | >10 | 400 |
| CC(=O)Nc1cc(N2C(=S)N(c3ccc(C#N)c(C(F)(F)F)c3)C(=O)C2(C)C)ccc1Cl [Example 22, 4-[3-(3-acetylamino-4-chlorophenyl)-4,4-dimethyl-5-oxo-2-thioxoimidazolidin-1-yl]-2-trifluoromethylbenzonitrile] |  | >10 | 200 |
| CC1(C)C(=O)N(c2ccc(C#N)c(C(F)(F)F)c2)C(=S)N1c1ccc(Cl)c(NC(=O)OCC(O)CO)c1 (stereo not drawn) [Example 49, {2-chloro-5-[3-(4-cyano-3-trifluoromethylphenyl)-5,5-dimethyl-4-oxo-2-thioxoimidazolidin-1-yl]phenyl}-carbamic acid 2,3-dihydroxypropyl ester] | 300 | >10 |  |
